Data: publication PMC10794982, “β-Caryophyllene Inhibits Monoacylglycerol Lipase Activity and Increases 2-Arachidonoyl Glycerol Levels In Vivo: A New Mechanism of Endocannabinoid-Mediated Analgesia?” (Molecular Pharmacology, 2024)

What was measured:
[1] = target: T1, monoacylglycerol lipase (MAGL) (Homo sapiens, UniProt Q99685); assay: modified Cayman MAGL inhibitor kit, 2-AG hydrolysis to arachidonic acid by HPLC-MS/MS; format: biochemical
T1 construct: gene MGLL
T1 sequence (Q99685 1-303): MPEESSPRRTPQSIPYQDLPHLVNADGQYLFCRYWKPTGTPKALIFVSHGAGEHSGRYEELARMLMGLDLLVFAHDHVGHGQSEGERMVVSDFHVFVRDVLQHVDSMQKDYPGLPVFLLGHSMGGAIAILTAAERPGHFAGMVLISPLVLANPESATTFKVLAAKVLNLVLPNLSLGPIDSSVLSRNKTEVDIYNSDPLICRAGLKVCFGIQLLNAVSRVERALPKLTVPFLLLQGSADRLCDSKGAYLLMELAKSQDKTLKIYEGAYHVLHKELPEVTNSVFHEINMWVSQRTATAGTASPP

[2] = target: T1, monoacylglycerol lipase (MAGL); assay: hydrolysis by kit MAGL, arachidonic acid product by HPLC-MS/MS; format: biochemical
Procedure: hydrolysis by kit MAGL, arachidonic acid product by HPLC-MS/MS on monoacylglycerol lipase (MAGL) | natural substrate 2-AG, which is hydrolyzed by MAGL to glycerol and AA. AA concentrations were determined using HPLC-MS/MS

Row | SMILES | IC50 [1] | hydrolysis by kit MAGL, arachidonic acid product by HPLC-MS/MS [2]
1 | C=C1CC/C=C(\C)CC[C@@H]2[C@@H]1CC2(C)C [BCP, β-Caryophyllene] | 15.8 µM | –
2 | CCCCC/C=C\C/C=C\C/C=C\C/C=C\CCCC(=O)OC(CO)CO [2-AG, 2-arachidonoylglycerol] | – | natural substrate 2-AG, which is hydrolyzed by MAGL to glycerol and AA. AA concentrations were determined using HPLC-MS/MS
